Test results from PubChem BioAssay AID330 (DTP/NCI, 2004).
Several values for one entry are separate records, joined by “and”; a condition that tells them apart may be missing. Equal values may be shown once. Inconclusive results and toxic doses are left out. Rule for the calls: active = survival T/C of 150% or more; inactive = T/C below 125% in these data.

Test system: P388 leukemia ip, CD2F1 mice, survival T/C
Assay: NCI In Vivo Anticancer Drug Screen. Data for tumor model P388 Leukemia (intraperitoneal) in CD2F1 (CDF1) mice
Conditions: endpoint: median survival time, higher = longer survival
Outline: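 Mice carrying the transplanted tumor received test compound or vehicle. Survival was recorded in each group, and the value is the treated-group measurement divided by that of the vehicle-treated control group.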

[1] = dose: 100.0 mg/kg/injection, schedule: Q04DX003 (ip), vehicle: saline
[2] = dose: 200.0 mg/kg/injection, schedule: Q04DX003 (ip), vehicle: saline
[3] = dose: 25.0 mg/kg/injection, schedule: Q01DX009 (ip), vehicle: saline with Tween-80
[4] = dose: 50.0 mg/kg/injection, schedule: Q01DX009 (ip), vehicle: saline with Tween-80
[5] = dose: 100.0 mg/kg/injection, schedule: Q01DX009 (ip), vehicle: saline with Tween-80
[6] = dose: 200.0 mg/kg/injection, schedule: Q01DX009 (ip), vehicle: saline with Tween-80
[7] = dose: 100.0 mg/kg/injection, schedule: Q04DX002 (ip), vehicle: saline with Tween-80
[8] = dose: 200.0 mg/kg/injection, schedule: Q04DX002 (ip), vehicle: saline with Tween-80
[9] = dose: 50.0 mg/kg/injection, schedule: Q01DX005 (ip), vehicle: Klucel (hydroxypropylcellulose) (HPC)
[10] = dose: 100.0 mg/kg/injection, schedule: Q01DX005 (ip), vehicle: Klucel (hydroxypropylcellulose) (HPC)
[11] = dose: 200.0 mg/kg/injection, schedule: Q01DX005 (ip), vehicle: Klucel (hydroxypropylcellulose) (HPC)
[12] = dose: 200.0 mg/kg/injection, schedule: Q01DX001 (ip), vehicle: Klucel (hydroxypropylcellulose) (HPC)
[13] = dose: 50.0 mg/kg/injection, schedule: Q01DX005 (ip), vehicle: saline with Tween-80
[14] = dose: 100.0 mg/kg/injection, schedule: Q01DX005 (ip), vehicle: saline with Tween-80
[15] = dose: 200.0 mg/kg/injection, schedule: Q01DX005 (ip), vehicle: saline with Tween-80

Measured: T/C

CC12NC(=O)NC1(C)NC(=O)N2 (stereo unspecified)
inactive: dose: 50.0 mg/kg/injection, schedule: Q01DX009 (ip), vehicle: saline 107 % of control | dose: 100.0 mg/kg/injection, schedule: Q01DX009 (ip), vehicle: saline 87 % of control | [1] 103 % of control | [2] 97 % of control

CC(C)Cc1nccs1
inactive: [3] 105 % of control | [4] 105 % of control and 110 % of control | [5] 106 % of control and 117 % of control | [6] 118 % of control

C=CC(=O)NN=C(c1ccccc1)c1ccccc1
inactive: dose: 42.0 mg/kg/injection, schedule: Q01DX009 (ip), vehicle: saline with Tween-80 98 % of control | dose: 84.0 mg/kg/injection, schedule: Q01DX009 (ip), vehicle: saline with Tween-80 103 % of control | dose: 168.0 mg/kg/injection, schedule: Q01DX009 (ip), vehicle: saline with Tween-80 100 % of control

CCCCCCCCCCCCCCCCOc1ccc2c(c1OCCCCCCCCCCCCCCCC)OC(C)(C)C=C2C
inactive: [7] 88 % of control | [8] 86 % of control

COc1ccc2c(=O)cc(-c3ccccc3)sc2c1
inactive: dose: 60.0 mg/kg/injection, schedule: Q01DX005 (ip), vehicle: Klucel (hydroxypropylcellulose) (HPC) 106 % of control | dose: 120.0 mg/kg/injection, schedule: Q01DX005 (ip), vehicle: Klucel (hydroxypropylcellulose) (HPC) 104 % of control | dose: 240.0 mg/kg/injection, schedule: Q01DX005 (ip), vehicle: Klucel (hydroxypropylcellulose) (HPC) 98 % of control

Cc1cnc(NCCCCCCCCNc2ncc(C)c(-c3ccccc3O)n2)nc1-c1ccccc1O
inactive: [1] 95 % of control | [2] 93 % of control | dose: 400.0 mg/kg/injection, schedule: Q04DX003 (ip), vehicle: saline 89 % of control

ClC1CN2CCC1CC2 (stereo unspecified)
inactive: dose: 12.5 mg/kg/injection, schedule: Q01DX009 (ip), vehicle: saline with Tween-80 91 % of control | [3] 95 % of control | [4] 100 % of control

Cn1c2ccccc2c2nnc(N/N=C/c3ccc(Cl)cc3)nc21
inactive: [7] 88 % of control | [8] 87 % of control | dose: 400.0 mg/kg/injection, schedule: Q04DX002 (ip), vehicle: saline with Tween-80 98 % of control

CCOc1ccc(N2C(=O)CC(Sc3ccccc3N)C2=O)cc1 (stereo unspecified)
inactive: [5] 110 % of control | [6] 115 % of control | dose: 400.0 mg/kg/injection, schedule: Q01DX009 (ip), vehicle: saline with Tween-80 120 % of control

CC1(C)CCCC2=C1C(=O)N(SC(Cl)(Cl)Cl)C2=O
inactive: dose: 12.5 mg/kg/injection, schedule: Q01DX005 (ip), vehicle: Klucel (hydroxypropylcellulose) (HPC) 102 % of control | dose: 25.0 mg/kg/injection, schedule: Q01DX005 (ip), vehicle: Klucel (hydroxypropylcellulose) (HPC) 121 % of control | [9] 121 % of control and 123 % of control | [10] 122 % of control

COc1ccc(N2C(=O)c3ccc4c5ccc6c7c(ccc(c8ccc(c3c48)C2=O)c75)C(=O)N(C)C6=O)cc1
inactive: [9] 97 % of control | [10] 98 % of control | [11] 105 % of control

C1CCC2C(C1)CC[N-]C2CCC1[N-]CCC2CCCCC21.C1CCC2C(C1)CC[N-]C2CCC1[N-]CCC2CCCCC21.[Ni+2].[O-][Cl+3]([O-])([O-])O (stereo unspecified)
inactive: dose: 25.0 mg/kg/injection, schedule: Q01DX001 (ip), vehicle: saline 100 % of control | dose: 50.0 mg/kg/injection, schedule: Q01DX001 (ip), vehicle: saline 100 % of control and 101 % of control | dose: 100.0 mg/kg/injection, schedule: Q01DX001 (ip), vehicle: saline 101 % of control and 108 % of control and 97 % of control | dose: 200.0 mg/kg/injection, schedule: Q01DX001 (ip), vehicle: saline 98 % of control and 100 % of control

[NH-]C(CO)C(=O)O.[NH-]C(CO)C(=O)O.[Pd+2] (stereo unspecified)
inactive: dose: 3.13 mg/kg/injection, schedule: Q04DX003 (ip), vehicle: water 103 % of control | dose: 6.25 mg/kg/injection, schedule: Q04DX003 (ip), vehicle: water 100 % of control | dose: 12.5 mg/kg/injection, schedule: Q01DX009 (ip), vehicle: acid diluted with saline 108 % of control | dose: 12.5 mg/kg/injection, schedule: Q01DX009 (ip), vehicle: water 104 % of control and 113 % of control | dose: 12.5 mg/kg/injection, schedule: Q04DX003 (ip), vehicle: water 97 % of control | dose: 25.0 mg/kg/injection, schedule: Q01DX009 (ip), vehicle: acid diluted with saline 109 % of control | dose: 25.0 mg/kg/injection, schedule: Q01DX009 (ip), vehicle: water 108 % of control and 109 % of control | dose: 25.0 mg/kg/injection, schedule: Q04DX003 (ip), vehicle: water 103 % of control | dose: 50.0 mg/kg/injection, schedule: Q01DX009 (ip), vehicle: acid diluted with saline 113 % of control | dose: 50.0 mg/kg/injection, schedule: Q01DX009 (ip), vehicle: water 104 % of control and 117 % of control | dose: 50.0 mg/kg/injection, schedule: Q04DX003 (ip), vehicle: water 117 % of control | dose: 100.0 mg/kg/injection, schedule: Q01DX009 (ip), vehicle: acid diluted with saline 104 % of control | dose: 100.0 mg/kg/injection, schedule: Q01DX009 (ip), vehicle: water 86 % of control | dose: 100.0 mg/kg/injection, schedule: Q04DX003 (ip), vehicle: water 106 % of control

CC(C)(C)c1ccc(S(=O)[O][Sn]([CH3])([CH3])[O]S(=O)c2ccc(C(C)(C)C)cc2)cc1 (stereo unspecified)
inactive: dose: 50.0 mg/kg/injection, schedule: Q01DX001 (ip), vehicle: Klucel (hydroxypropylcellulose) (HPC) 110 % of control | [12] 114 % of control

Cc1ncc(C(N)=O)c2c1OC(C)(C)OC2
inactive: [13] 100 % of control | [14] 100 % of control | [15] 99 % of control

CC(NC(=O)c1ccc(C(C[N+](=O)[O-])SCCC(=O)O)cc1)C(=O)O (stereo unspecified)
inactive: dose: 60.0 mg/kg/injection, schedule: Q01DX005 (ip), vehicle: saline + Tween-80 + alcohol 98 % of control | dose: 120.0 mg/kg/injection, schedule: Q01DX005 (ip), vehicle: saline + Tween-80 + alcohol 99 % of control | dose: 240.0 mg/kg/injection, schedule: Q01DX005 (ip), vehicle: saline + Tween-80 + alcohol 107 % of control

CC#CC#C/C=C1/C=CC2(CC=CO2)O1 (stereo unspecified)
inactive: dose: 12.5 mg/kg/injection, schedule: Q01DX009 (ip), vehicle: Klucel (hydroxypropylcellulose) (HPC) 107 % of control | dose: 25.0 mg/kg/injection, schedule: Q01DX009 (ip), vehicle: Klucel (hydroxypropylcellulose) (HPC) 106 % of control | dose: 50.0 mg/kg/injection, schedule: Q01DX009 (ip), vehicle: Klucel (hydroxypropylcellulose) (HPC) 111 % of control | dose: 100.0 mg/kg/injection, schedule: Q01DX009 (ip), vehicle: Klucel (hydroxypropylcellulose) (HPC) 114 % of control

COc1ccc(C2c3cc(OC)c(OC)cc3CC3C(=O)OCC32)cc1OC (stereo unspecified)
inactive: [9] 94 % of control and 107 % of control | [10] 100 % of control and 97 % of control | [11] 112 % of control and 103 % of control

CCCCCCC1CC1C(=O)NCCCCCN=C(N)N (stereo unspecified)
inactive: dose: 7.5 mg/kg/injection, schedule: Q01DX009 (ip), vehicle: Klucel (hydroxypropylcellulose) (HPC) 100 % of control | dose: 15.0 mg/kg/injection, schedule: Q01DX009 (ip), vehicle: Klucel (hydroxypropylcellulose) (HPC) 100 % of control | dose: 30.0 mg/kg/injection, schedule: Q01DX009 (ip), vehicle: Klucel (hydroxypropylcellulose) (HPC) 107 % of control

C=CC12CCC(CC1)n1c(=O)n(C)c(=O)n12
inactive: [13] 99 % of control | [14] 103 % of control | [15] 100 % of control

C=C(C)OP(=O)(OCC)OCC
inactive: dose: 100.0 mg/kg/injection, schedule: Q01DX001 (ip), vehicle: Klucel (hydroxypropylcellulose) (HPC) 100 % of control | [12] 111 % of control | dose: 400.0 mg/kg/injection, schedule: Q01DX001 (ip), vehicle: Klucel (hydroxypropylcellulose) (HPC) 102 % of control

O=c1[nH]c2ccccc2n1C1CCN(CC(O)C2COc3ccccc3O2)CC1 (stereo unspecified)
inactive: [4] 94 % of control | [5] 106 % of control | [6] 103 % of control

O=C(CCCC(=O)Nc1cccc([N+](=O)[O-])c1)CC(=O)c1ccc([N+](=O)[O-])cc1
inactive: dose: 60.0 mg/kg/injection, schedule: Q01DX005 (ip), vehicle: saline with Tween-80 100 % of control | dose: 120.0 mg/kg/injection, schedule: Q01DX005 (ip), vehicle: saline with Tween-80 102 % of control | dose: 240.0 mg/kg/injection, schedule: Q01DX005 (ip), vehicle: saline with Tween-80 103 % of control

Cn1c(Cc2ccccc2)c(C(=O)/C=C/c2ccccc2)c(=O)n(C)c1=O
inactive: [13] 103 % of control | [14] 100 % of control | [15] 99 % of control
